Results from the NIST ThermoML archive (doi:10.1007/s10765-005-8590-7).
Numbers after ± are expanded uncertainties.

What was measured:
[1] = xn = mol fraction of the nth substance listed; conditions: Fluid (supercritical or subcritical phases), Constant-volume piezometry, x2 = 0
[2] = Fluid (supercritical or subcritical phases), Constant-volume piezometry

O [water] + N
[1]
Conditions | mass density [kg/m3]
270.15 K, 4074.2 kPa | 1001.55 ± 0.22
271.17 K, 3818.6 kPa | 1001.52 ± 0.22
272.04 K, 5219 kPa | 1002.3 ± 0.22
272.13 K, 3596.6 kPa | 1001.49 ± 0.22
273.1 K, 3402.1 kPa | 1001.46 ± 0.21
273.15 K, 5009.6 kPa | 1002.26 ± 0.22
274.12 K, 13437 kPa | 1006.52 ± 0.25
274.15 K, 3220.1 kPa | 1001.42 ± 0.21
274.15 K, 4843.5 kPa | 1002.23 ± 0.22
275.15 K, 4716.5 kPa | 1002.19 ± 0.22
275.16 K, 3074.5 kPa | 1001.39 ± 0.21
275.18 K, 13355 kPa | 1006.48 ± 0.25
276.12 K, 4614.4 kPa | 1002.16 ± 0.22
276.16 K, 13306 kPa | 1006.44 ± 0.25
276.17 K, 2960.4 kPa | 1001.35 ± 0.21
276.18 K, 13305 kPa | 1006.44 ± 0.25
277.15 K, 2875.8 kPa | 1001.32 ± 0.21
277.15 K, 4535.3 kPa | 1002.12 ± 0.22
277.16 K, 13282 kPa | 1006.4 ± 0.25
278.13 K, 4490.8 kPa | 1002.08 ± 0.22
278.16 K, 2819.8 kPa | 1001.27 ± 0.21
278.16 K, 13288 kPa | 1006.35 ± 0.25
279.1 K, 4468.4 kPa | 1002.03 ± 0.22
279.16 K, 2790.3 kPa | 1001.23 ± 0.21
279.17 K, 13328 kPa | 1006.3 ± 0.25
280.1 K, 4469.1 kPa | 1001.99 ± 0.22
280.17 K, 13374 kPa | 1006.26 ± 0.25
281.08 K, 2807.6 kPa | 1001.14 ± 0.22
281.14 K, 4509 kPa | 1001.94 ± 0.22
281.17 K, 13456 kPa | 1006.21 ± 0.25
282.13 K, 13562 kPa | 1006.16 ± 0.25
283.15 K, 4649.5 kPa | 1001.84 ± 0.22
283.18 K, 13665 kPa | 1006.11 ± 0.25
285.14 K, 13994 kPa | 1006.01 ± 0.26
286.05 K, 5038.7 kPa | 1001.69 ± 0.22
288.15 K, 14714 kPa | 1005.84 ± 0.26
289.17 K, 5677.6 kPa | 1001.51 ± 0.23
292.12 K, 6505.6 kPa | 1001.33 ± 0.23
296.13 K, 7938.8 kPa | 1001.06 ± 0.24
300.13 K, 9714.8 kPa | 1000.78 ± 0.24
305.19 K, 12424 kPa | 1000.41 ± 0.26
308.16 K, 14234 kPa | 1000.19 ± 0.27

O [water]
[2]
Conditions | mass density [kg/m3]
270.15 K, 4074.2 kPa | 1001.55 ± 0.22
271.17 K, 3818.6 kPa | 1001.52 ± 0.22
272.04 K, 5219 kPa | 1002.3 ± 0.22
272.13 K, 3596.6 kPa | 1001.49 ± 0.22
273.1 K, 3402.1 kPa | 1001.46 ± 0.21
273.15 K, 5009.6 kPa | 1002.26 ± 0.22
274.12 K, 13437 kPa | 1006.52 ± 0.25
274.15 K, 3220.1 kPa | 1001.42 ± 0.21
274.15 K, 4843.5 kPa | 1002.23 ± 0.22
275.15 K, 4716.5 kPa | 1002.19 ± 0.22
275.16 K, 3074.5 kPa | 1001.39 ± 0.21
275.18 K, 13355 kPa | 1006.48 ± 0.25
276.12 K, 4614.4 kPa | 1002.16 ± 0.22
276.16 K, 13306 kPa | 1006.44 ± 0.25
276.17 K, 2960.4 kPa | 1001.35 ± 0.21
276.18 K, 13305 kPa | 1006.44 ± 0.25
277.15 K, 2875.8 kPa | 1001.32 ± 0.21
277.15 K, 4535.3 kPa | 1002.12 ± 0.22
277.16 K, 13282 kPa | 1006.4 ± 0.25
278.13 K, 4490.8 kPa | 1002.08 ± 0.22
278.16 K, 2819.8 kPa | 1001.27 ± 0.21
278.16 K, 13288 kPa | 1006.35 ± 0.25
279.1 K, 4468.4 kPa | 1002.03 ± 0.22
279.16 K, 2790.3 kPa | 1001.23 ± 0.21
279.17 K, 13328 kPa | 1006.3 ± 0.25
280.1 K, 4469.1 kPa | 1001.99 ± 0.22
280.17 K, 13374 kPa | 1006.26 ± 0.25
281.08 K, 2807.6 kPa | 1001.14 ± 0.22
281.14 K, 4509 kPa | 1001.94 ± 0.22
281.17 K, 13456 kPa | 1006.21 ± 0.25
282.13 K, 13562 kPa | 1006.16 ± 0.25
283.15 K, 4649.5 kPa | 1001.84 ± 0.22
283.18 K, 13665 kPa | 1006.11 ± 0.25
285.14 K, 13994 kPa | 1006.01 ± 0.26
286.05 K, 5038.7 kPa | 1001.69 ± 0.22
288.15 K, 14714 kPa | 1005.84 ± 0.26
289.17 K, 5677.6 kPa | 1001.51 ± 0.23
292.12 K, 6505.6 kPa | 1001.33 ± 0.23
296.13 K, 7938.8 kPa | 1001.06 ± 0.24
300.13 K, 9714.8 kPa | 1000.78 ± 0.24
305.19 K, 12424 kPa | 1000.41 ± 0.26
308.16 K, 14234 kPa | 1000.19 ± 0.27
